# Literature values in paper PMC7464159, “Triple Negative Breast Cancer and Breast Epithelial Cells Differentially Reprogram Glucose and Lipid Metabolism upon Treatment with Triterpenic Acids” (Biomolecules, 2020).
# Test system: MDA-MB-231 cells
# Set-up: method as in PMID 22407812
# Settings: BA 2.5–10 μM, 48 h; cited from earlier work
compound,measurement,value
"C=C(C)[C@@H]1CC[C@]2(C(=O)O)CC[C@]3(C)[C@H](CC[C@@H]4[C@@]5(C)CC[C@H](O)C(C)(C)[C@@H]5CC[C@]43C)[C@@H]12 [BA, betulinic acid]",cell cycle effect,cell cycle arrest at G2/M phase
